Key:
[1] = system: Zebrafish overexpressing NNT (NNT OE); test: 2,3BD treatment of zebrafish overexpressing NNT; assay type: in vivo; settings: 100 μM for 24 hours, FIG. 11C
Protocol: The human NNT gene was cloned into the MiniCoopR expression plasmid to allow melanocyte-specific overexpression of NNT (Ceol et al., 2011). The mcr:NNT plasmid was injected into Tubingen zebrafish embryos at the single cell stage and incorporated into the genome through the use of Tol2 transgenesis. Larvae were raised for 5 days and then at least three images were obtained and quantified using a Nikon SMZ18 Stereomicroscope. At least 5 zebrafish embryos of each group were analyzed after 5 days using the […] software enabling pixel-based color quantification. Wildtype Tübingen zebrafish were placed in a 24 well plate at 72 hours post-fertilization, with 10 larvae per well for a total twenty larvae per condition. Larvae were treated for 24 hours with either 2,3BD (1 μM, 10 μM, 100 μM, 1 mM; Sigma Aldrich, #B85307), DCC (1 μM, 10 μM, 50 μM, 100 μM; Sigma Aldrich, #D80002), or DMSO (1:500) in E3 embryo medium. At 4 days post fertilization, larvae were imaged using a Nikon SMZ18 Stereomicroscope. Melanocytes from at least 5 zebrafish embryos of each group for each experiment were analyzed using the FIJI software enabling pixel-based color quantification.

human skin = test: UVB-induced DNA damage (CPD, γ-H2AX) in human skin; assay type: cell-based; settings: 50 mM for 5 days
Protocol: Skin samples considered surgical waste were obtained de-identified from healthy donors (IRB #2013P000093) undergoing reconstructive surgery, according to institutional regulations. Full thickness human abdominal skin explants were cultured in petri dishes with a solid phase and liquid phase phenol red free DMEM medium containing 20% penicillin/streptomycin/glutamine, 5% fungizone (Gibco), and 10% fetal bovine serum. Compounds were applied strictly on top of the explants, making sure no drip occurred into the underlying media. For UV irradiation experiments, a UV lamp (UV Products) was used at 1000 mJ/cm^2 UVB. For immunofluorescence, paraffin sections were deparaffinized by xylene and rehydrated gradually with ethanol to distilled water. Sections were submerged in 0.01 M citrate buffer and boiled for 10 min for retrieval of antigen. The sections were washed with TBST (0.1% Tween 20) and blocked with protein blocking solution (Agilent, #X090930-2) for 1 h at room temperature before application of primary antibody [1:100 diluted in Antibody Diluent (DAKO, #S3022)] and incubation overnight at 4° C. The following day, sections were washed with TBST three times and incubated with secondary antibody Alexa Fluor 647 goat anti-mouse IgG (G+L) (ThermoFisher Scientific, #A-21236), Alexa Fluor 594 F(ab)2 fragment of goat anti-rabbit IgG (G+L) (ThermoFisher Scientific, #A-11072), or Alexa Fluor 555 goat anti-rabbit IgG (ThermoFisher Scientific, #A-21428). After washing, the tissue sections were cover-slipped with mounting medium (SlowFade® Gold Antifade Reagent with DAPI, ThermoFisher Scientific, #S36939). MaxBlock Autofluorescence Reducing Reagent Kit (MaxVision Biosciences, #MB-L) was used to quench skin tissue autofluorescence according to the reagent instructions. […]

[2] = system: primary human melanocytes; test: Intracellular melanin content of primary human melanocytes with NNT inhibitors; assay type: cell-based; settings: FIG. 10D
Description: Primary human melanocytes were isolated from normal discarded foreskins and were established in TIVA medium as described previously (Khaled et al., 2010) or in Medium 254 (Life Technologies, #M254500) (Allouche et al., 2015). Human melanoma cell line UACC257 (sex unspecified) was obtained from the National Cancer Institute (NCI), Frederick Cancer Division of Cancer Treatment and Diagnosis (DCTD) Tumor Cell Line Repository. SK-MEL-30 ([…]) human melanoma cell line was from Memorial Sloan Kettering Cancer Center. Both melanoma cell lines have been authenticated by our lab using ATCC's STR profiling service. UACC257 and SK-MEL-30 cells were cultured in DMEM and RPMI medium (Life Technologies, #11875119) respectively, supplemented with 10% fetal bovine serum and 1% penicillin/streptomycin/L-glutamine in a humidified atmosphere of 95% air and 5% CO2 at 37° C.
(§1) In vitro culture with NNT inhibitors: 2,3-Butanedione 97% (2,3 BD) (Sigma Aldrich, #B85307) (1 μM, 10 μM, 100 μM, 2 mM), N,N-Dicyclohexylcarbodiimide (DCC) (Sigma Aldrich, #D80002) (1 mM, 2 mM, 10 mM), and Palmitoyl coenzyme A lithium salt (Sigma Aldrich, #P9716) (10 μM, 2 mM) were reconstituted with DMSO (American Type Culture Collection, 4-X).
(§2) Melanin quantification: Equal numbers of cells were plated in 6-well plates. The cells were then harvested 72-96 hours post siRNA or NNT inhibitors compounds, as indicated in the legends, pelleted, washed in PBS and counted. 10^6 cells were used for measurement of protein concentration with the Pierce BCA protein assay (Thermo Fisher Scientific, #23225) and 10^6 cells were resuspended in 60 μl of 1 N NaOH solution and incubated at 60° C. for 2 h or until the melanin was completely dissolved. After cooling down to room temperature, samples were centrifuged at 500×g for 10 min and the supernatants were loaded onto a 96-well plate. The melanin content was determined by measuring the absorbance at 405 nm on an Envision plate reader, compared with a melanin standard (0 to 50 μg/ml; Sigma Aldrich, #M8631). Melanin content was expressed as micrograms per milligram of protein.

primary melanocytes = test: Cell viability of primary melanocytes, different doses; assay type: cell-based, human; settings: FIG. 10C
Protocol: Cell viability assay: Human melanoma cell lines and isolated primary cultured human melanocytes were propagated and tested in early passage (Passages 7 to 9). The effects of NNT inhibitors (2,3BD, DCC, and Palmitoyl coenzyme A lithium salt) on cell viability were evaluated by the CellTiter-Glo Luminescent Cell Viability Assay (Promega, #G7570) and measurement of luminescence was performed on an EnVision 2104 Multilabel Reader (PerkinElmer). Human melanoma cell lines and primary melanocytes were plated on 96-well white plates (10,000 cells/well) and were treated with the NNT inhibitors at the indicated concentrations for 24 h.

murine Melan-A cells = test: Melanin content of Melan-A cells with NNT inhibitors; assay type: cell-based, mouse; settings: 2 mM, FIG. 3A
Protocol: Murine Melan-A (Bennett et al., 1987) cells were obtained from the Wellcome Trust Functional Genomics Cell Bank. Melan-A cells were grown in RPMI 1640 supplemented with 10% FBS or FetalPlex (Gemini Bio-Products, #100-602), 100,000 U/L penicillin, 100 mg/L streptomycin sulphate, 100× Glutamax, and 200 nM TPA.
as §1, §2

CC(=O)C(C)=O [2,3BD, 2,3-Butanedione]
melanocytic pigmentation of NNT overexpressing fish [1]: prevented the NNT OE-induced decrease in melanocytic pigmentation
toxicity by γ-H2AX (human skin): non-toxic
UVB-induced CPD formation (human skin; skin type 2-3, then 1000 mJ/cm^2 UVB): protected against formation of UVB-induced CPD
UVB-induced γ-H2AX induction (human skin; then UVB): could protect human skin from UVB-induced γ-H2AX induction
intracellular melanin content ([2]; 2.3 BD 2 mM for 72 hours): significantly increased the intracellular melanin content
melanin on simultaneous treatment with siNNT ([2]; siNNT plus 2,3 BD): did not further increase the melanin
cell viability (primary melanocytes; different doses, relative to vehicle): no impacts on cell viability
in vitro toxicity (primary melanocytes; doses up, primary melanocytes): no significant toxicity
melanin content (murine Melan-A cells): increased melanin content

From patent publication US20240307283A1, “COMPOSITIONS AND METHODS FOR DECREASING PIGMENTATION” (The General Hospital Corporation, priority 2021, published 2024)
